The subject of data set [1] is CF-31 fibroblasts. Description: Cell spreading on RGD-peptide coupled HA-DTPH/PEGDA hydrogel surface, CF-31. The class given is cell-based, human. The conditions noted are these: for percentage of round cells / percentage of spreading cells: complete medium, 18 h post seeding. The protocol:
(§1) Cell culture. Dermal fibroblasts from a person (CF-31) (Clonetics, San Diego) and NIH 3T3 fibroblast (ATCC) were routinely cultured in completed DMEM/F-12 medium supplied with 10% new-born calf serum (for NIH 3T3 fibroblast) or fetal bovine serum (for CF-31 fibroblast), 2 mM L-glutamine and 100 units/ml antibotic-antimycotic (GIBCO BRL, Life Technologies, Grand Island, N.Y.), and 50 μg/ml ascorbic acid (Sigma) at 37° C. in a humidified 5% CO2 incubator. Monolayers of fibroblasts in their growth phase (ca. 90% confluence) were dissociated with trypsin/1 mM EDTA in DPBS, centrifuged and resuspended in the serum free medium or complete medium.
Cell spreading on the RGD-peptides coupled HA-DTPH/PEGDA hydrogel surface. HA-DTPH/PEGDA hydrogels or hydrogel films in 24-well plate were rinsed with serum free medium or complete medium 3 times, and then CF-31 and NIH 3T3 fibroblasts were seeded on the surface of the hydrogel or hydrogel film surface at a density of 4×10^4/well. Then, 1 ml of serum free medium or complete medium was added into each well, and the cells were cultured at 37° C. in a humidified 5% CO2 incubator. At 2, 4, 8 and 18 h post seeding, 0.4 ml of 10% formalin solution (Sigma) was added into each well to fix cell for 15 min. The cells were then stained at room temperature with 0.1% crystal violet in 200 mM boric acid (pH 8.0) for 15 minutes. Photomicrographs of the cytoplasmic-stained cells were taken a 100×total magnification using an inverted Nikon microscope with a CCD camera on a minimum of five random fields per well (n=3 per composition). The bundled Spot 3.0 software (Diagnostic Instruments, Sterling Heights, MI) was used to classify the cell morphology into 3 categories viz. round, partially spread or fully spread as reported by Neff etc[47]. It was defined that cells with surface area <2000 pixels^2 were completely round, 2000 pixels^2 <cells with area <8000 pixels^2 had few cytoplasmic extensions although they maintained a somewhat round appearance, and cells with surface areas >8000 pixels^2 were fully spreading and had multiple cytoplasmic extensions in various directions.

Data set [2] deals with NIH 3T3 fibroblasts. Description: Cell proliferation on the RGD-peptide coupled HA-DTPH/PEGDA hydrogel surface (MTS assay). The class given is cell-based. Particulars: PEGDA 3400; for proliferation of NIH 3T3 fibroblasts on surface: in 24 h, peptide concentration in bulk 0.268 mM. The protocol:
Cell proliferation on the RGD-peptide coupled HA-DTPH/PEGDA hydrogel surface. Peptide-coupled HA-DTPH/PEGDA hydrogels or hydrogel films in 24-well plates were rinsed 3 times with complete medium, and then CF-31 and NIH 3T3 fibroblasts were seeded on the surface of the hydrogel or hydrogel film surface at a density of 1×10^4/well. After that 1 ml of complete medium was added into each well, and the cells were cultured at 37° C. in a humidified 5% CO2 incubator and the medium was changed daily. At different time points (day 1, 2, 3 and 4), the cell number was determined by MTS assay (Cell-Titer 96 Proliferation Kit, Promega, Madison, Wis.) as previously described Shu, et al., Biomacromolecules 3:1304, 2002; Ren and Tang, Anticancer Res. 19:403, 1999) and the absorption recorded at 550 nm with an OPTI Max microplate reader (Molecular Devices). Cell numbers were obtained using standard curves generated from the assay.
On the technique in general: Tetrazolium assays rely on reduction of a dye to a coloured formazan, in cell work by metabolically active cells.

Data set [3] concerns NIH 3T3 fibroblasts. As to the kind of experiment: Cell spreading on RGD-peptide coupled HA-DTPH/PEGDA hydrogel surface, NIH 3T3. The class given is cell-based. The protocol: as §1
Cell spreading on the RGD-peptides coupled HA-DTPH/PEGDA hydrogel surface. HA-DTPH/PEGDA hydrogels or hydrogel films in 24-well plate were rinsed with serum free medium or complete medium 3 times, and then CF-31 and NIH 3T3 fibroblasts were seeded on the surface of the hydrogel or hydrogel film surface at a density of 4×10^4/well. Then, 1 ml of serum free medium or complete medium was added into each well, and the cells were cultured at 37° C. in a humidified 5% CO2 incubator. At 2, 4, 8 and 18 h post seeding, 0.4 ml of 10% formalin solution (Sigma) was added into each well to fix cell for 15 min. The cells were then stained at room temperature with 0.1% crystal violet in 200 mM boric acid (pH 8.0) for 15 minutes. […]

Data set [4] concerns NIH 3T3 fibroblasts. Description: Cell proliferation inside the RGD-peptide coupled HA-DTPH/PEGDA hydrogel (MTT assay, F-DA/PI staining). Particulars: NIH 3T3 encapsulated at 1×10^6/ml; day 15 compared to day 1. The format is cell-based. The protocol:
Cell proliferation inside the RGD-peptide coupled HA-DTPH/PEGDA hydrogel. NIH 3T3 fibroblasts were suspended in 1.25% (w/v) HA-DTPH solution in complete medium (pH 7.4) at a density of 1×10^6/ml, and then 1 ml of stock peptide-coupled PEGDA or blank PEGDA solution (see hydrogel preparation) was added into 4 ml of cell/HA-DTPH mixture solution. After mixed, 200 μl of the mixture of HA-DTPH/PEG-diacrylate/T31 fibroblasts was injected into each well of 24-well plates. After 1 h, 1.0 ml of complete medium was added into each well and incubated in 37° C. 5% CO2 incubator. The medium was changed every day without damaging the hydrogel. The viability of NIH 3T3 fibroblast inside hydrogel following 1, 5 and 15 d in vitro culture was determined by a double-staining procedure (Saha, et al., Dev. Comp. Immunol. 27:351, 2003) using fluorescein diacetate (F-DA) and propidium iodide (PI). Briefly, cell-hydrogel constructs were rinsed twice with DPBS buffer, stained with F-DA (0.02 mg/ml)(Molecular Probes, Eugene, Oreg.) and PI (0.2 μg/ml)(Sigma) at room temperature for 3 min, rinsed twice with DPBS buffer, stored on ice, and observed under confocal microscope (Zeiss Axioplan 2 Imaging System, LSM 5 Pa).
The cell proliferation inside hydrogel following in vitro culture of day 1, 5, 10 and 15 was determined by MTT (3-[4,5-dimethylthiazol-2-yl]-2,5-diphenyltetrazolium bromide) assay (Sigma). A 1% MTT in serum-free media solution was added to each well containing the cell-hydrogel construct. Active mitochondria metabolize the tetrazolium salt to form an insoluble formazin dye. After 8 h of incubation, the constructs were placed in 10 ml glass vials and 2 ml 0.04 N HCl in isopropanol was added to extract the formazin. The absorbance was recorded at 550 nm with an OPTI Max microplate reader (Molecular Devices) and was converted into a cell number based on standard curves.

For data set [5], the system named is NIH 3T3 fibroblasts. Description: Injectable fibrous tissue regeneration in nude mouse, histology and procollagen immunohistochemistry. The format is in vivo, nude mice. The protocol: RGD-peptide coupled HA-DTPH/PEGDA hydrogel for injectable fibrous tissue regeneration in nude mouse. Animal experiments were carried out according to NIH guidelines for the care and use of laboratory animals (NIH publication #85-23 rev. 1985). Male nude mice (n=12) (Simonsen Laboratories Inc., Gilroy, Calif.), 4-6 weeks old were anesthetized with 2.5% isoflurane using a VetEquip inhalation anesthesia system (Pleasanton, Calif.). NIH 3T3 fibroblasts were suspended in 1.25% (w/v) HA-DTPH solution in complete medium (pH 7.4) at a density of 50×10^6 cell/ml, and then 1 ml stock CRGDS-coupled PEGDA (peptide concentration 10/100) or blank PEGDA (see 2.4 hydrogel preparation) was added into 4 ml cell/HA-DTPH mixture solution and mixed. Each nude mouse received four 300 μl s.c. dorsal injections by means of an 18-gauge needle under the dorsal panniculus camosus (two 300 μl solution with cells and two 300 μl solution without cells as control). At each time point (4 and 8 weeks after implantation), two nude mice were sacrificed, and the implants with the surrounding tissues were removed from the mouse, fixed in 10% buffered formalin solution (Sigma) for 24 h, embedded in paraffin, cut into 5-μm sections, and mounted onto slides.
Histological and immunohistochemical staining. […]

Setting [6] is: PEG spacer molecular weight 3400, peptide concentration in bulk 0.268 mM.
Where [7] appears, read: peptide concentration in bulk 0.0054 mM.
[8] abbreviates: peptide concentration in bulk 0.0268 mM.
Setting [9] is: peptide concentration in bulk 0.134 mM.
Where [10] appears, read: peptide concentration in bulk 0.268 mM.

Consider CRGDS, for which the round cell percent in data set [1] (PEG spacer molecular weight 700, peptide concentration in bulk 0.268 mM) came out at 75.6%; in data set [1] (setting [6]), 9.4%. The “spreading percent of CF-31 fibroblast” value in data set [1] (setting [6]) is reported as 53%. The “percentage of round cells” value in data set [1] (setting [7]) is on record as 51.2%; in data set [1] (setting [10]), 18%. Also, the “percentage of spreading cells” value in data set [1] (setting [7]) is given as 19.1%; in data set [1] (setting [8]), 31.3%; in data set [1] (setting [9]) it was 48.2%; in data set [1] (setting [10]), 53.0%. Besides, the “cell density relative to cell culture polystyrene control” value in data set [2] (hydrogel film surface, 4 days culture, CRGDS concentration in bulk 0.268 mM) is listed as “ca. 80%”. In data set [2], the “proliferation of NIH 3T3 fibroblasts on surface” value (“proliferation … on surface” below) is 1.64 fold. Further, in data set [3] (at 4 and 8 h), the cell area result is “larger than that for CCRGDS”. In addition, the “cell proliferation inside the hydrogel” value in data set [4] is 253%. Further, the “fibrous tissue and procollagen versus hydrogel lacking the peptide” value in data set [5] (cell-seeded hydrogel, 4 weeks post-injection) was “More uniform fibrous tissue and procollagen”. For the same substance, the “signs of biological incompatibility (necrosis or damage to the surrounding tissues)” value in data set [5] (s.c. injection in nude mice, gel formed in vivo) is given as “No signs of biological incompatibility”.

In the case of CRDGS [reference compound], the “cell attachment and spreading” value in data set [1] (CF-31, serum free medium) is reported as “failed to promote cell spreading”. For the same substance, in data set [2], the “proliferation … on surface” value is recorded as “no spreading or proliferation was observed”. Further, the “cell morphology on hydrogel surface” value in data set [3] (4 and 8 h post-seeding) is on record as “the cells were rounded”. The “cell proliferation inside the hydrogel” value in data set [4] is 245%.

As for CCRGDS, the “percentage of spreading cells” value in data set [1] (setting [7]) was found to be 8.3%; in data set [1] (setting [8]) it was 12.4%; in data set [1] (setting [9]), 36.8%; in data set [1] (setting [10]) it was 46.5%. In addition, the “proliferation … on surface” value in data set [2] is on record as 1.50 fold. Moreover, the “cell proliferation inside the hydrogel” value in data set [4] stood at 253%.

These data come from US20050282747A1, “Methods and compositions for wound healing” (The Research Foundation of State University of New York at …, priority 2003, published 2005).
